Measurements taken from ChEMBL document CHEMBL5096222, “Discovery of a Trifluoromethoxy Cyclopentanone Benzothiazole Receptor-Interacting Protein Kinase 1 Inhibitor as the Treatment for Alzheimer's Disease” (J Med Chem, 2022).
pEC50, pKd: −log10 of the molar value.

Columns and labels:
[1] = Cytotoxicity against human HT-29 cells assessed as reduction in cell viability by celltiter-glo luminescent cell viability assay; type: toxicity, cell-based
HT-29 = assay: Anti-necroptotic activity in TSZ induced human HT-29 cells assessed as increase in cell viability pretreated with compound followed by TSZ stimulation and measured after 16 hrs by celltiter-glo luminescent cell viability assay; type: functional, cell-based
[2] = molecular target: Receptor-interacting serine/threonine-protein kinase 3 (Homo sapiens, UniProt Q9Y572); assay: Binding affinity to recombinant human wild type partial length RIPK3 (M1 to Q307 residues) expressed in bacterial expression system by KINOMEscan TM assay
[3] = molecular target: T1, Receptor-interacting serine/threonine-protein kinase 1 (Homo sapiens, UniProt Q13546); assay: Binding affinity to recombinant human wild type partial length RIPK1 (M1 to K305 residues) expressed in bacterial expression system by KINOMEscan TM assay
T1 sequence (Q13546 whole entry): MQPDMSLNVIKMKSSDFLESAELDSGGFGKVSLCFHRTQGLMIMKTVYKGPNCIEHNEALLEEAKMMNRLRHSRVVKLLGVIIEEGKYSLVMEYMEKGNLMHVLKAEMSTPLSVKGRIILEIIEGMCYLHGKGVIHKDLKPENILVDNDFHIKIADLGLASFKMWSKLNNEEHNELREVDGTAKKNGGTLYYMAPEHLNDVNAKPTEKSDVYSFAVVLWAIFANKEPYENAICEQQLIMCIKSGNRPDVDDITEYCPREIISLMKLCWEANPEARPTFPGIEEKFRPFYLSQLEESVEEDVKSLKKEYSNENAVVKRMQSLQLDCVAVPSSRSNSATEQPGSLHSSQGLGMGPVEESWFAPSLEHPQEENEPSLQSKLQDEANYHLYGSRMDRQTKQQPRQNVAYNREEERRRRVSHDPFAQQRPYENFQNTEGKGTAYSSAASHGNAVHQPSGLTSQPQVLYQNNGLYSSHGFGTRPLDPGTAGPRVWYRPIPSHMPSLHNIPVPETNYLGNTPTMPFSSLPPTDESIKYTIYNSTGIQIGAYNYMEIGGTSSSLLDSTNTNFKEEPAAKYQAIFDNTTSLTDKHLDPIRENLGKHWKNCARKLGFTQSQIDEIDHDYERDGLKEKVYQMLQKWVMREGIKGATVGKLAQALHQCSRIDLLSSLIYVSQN

Receptor-interacting serine/threonine-protein kinase 3, sequence (Q9Y572 whole entry, the tested form may be a part): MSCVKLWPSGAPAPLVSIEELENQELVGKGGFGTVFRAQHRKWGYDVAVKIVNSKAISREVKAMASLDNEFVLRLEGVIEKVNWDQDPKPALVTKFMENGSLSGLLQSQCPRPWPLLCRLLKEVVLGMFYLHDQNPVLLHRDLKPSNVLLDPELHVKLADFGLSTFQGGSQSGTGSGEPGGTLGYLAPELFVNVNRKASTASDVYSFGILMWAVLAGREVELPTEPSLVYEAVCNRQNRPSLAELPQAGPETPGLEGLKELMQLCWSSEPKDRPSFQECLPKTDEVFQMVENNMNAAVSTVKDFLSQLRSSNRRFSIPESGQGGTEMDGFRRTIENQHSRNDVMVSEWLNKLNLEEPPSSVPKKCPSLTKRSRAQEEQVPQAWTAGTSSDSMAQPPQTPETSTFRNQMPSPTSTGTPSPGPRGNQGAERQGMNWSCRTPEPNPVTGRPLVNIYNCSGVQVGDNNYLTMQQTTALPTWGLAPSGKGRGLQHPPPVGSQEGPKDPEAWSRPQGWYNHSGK

pKd [2]: < 5.30 | pKd [3]: 7.60
Compound: CC1(C)CC1C(=O)Nc1nc2cc(Oc3ccc(F)c(NC(=O)Cc4cccc(OC(F)(F)F)c4)c3)c(F)cc2s1 (centres undefined)
CC50 [1]: > 50000 nM | pEC50 (HT-29): 7.92
